Data taken from patent US10745399B2 (priority 2015, dated 2020).
Read-outs that look alike come from different tables or passages of the source.

Key:
PI3K p110β/p85α (human) = PI3K p110β/p85α (human) (Homo sapiens (Human), UniProt P42338); test: PI3K p110β/p85α (human), non-radioactive assay (HTRF); type: biochemical; conditions: read-out: IC50 (PI3Kbeta)
Description: PI3K p110β/p85a (Human), Non-Radioactive Assay
(§1) PI3K p110β/p85α (human) was incubated in an assay buffer comprising 10 μM phosphatidylinositol 4,5-bisphosphate and MgATP (concentration as necessary). The reaction was initiated by addition of MgATP solution. After an incubation time of 30 min at room temperature, the reaction was stopped by addition of a solution consisting of EDTA and biotinylated phosphatidylinositol 3,4,5-trisphosphate. Finally, the detection buffer, consisting of a europium-labelled anti-GST monoclonal antibody, a GST-labelled GRP1 PH domain and streptavidin allophycocyanin, was added. The plate was read out via homogeneous time-resolved fluorescence (HTRF) and the corresponding signals were evaluated via the formula HTRF=10000×(Em665 nm/Em620 nm).

PI3K p110α/p85α (human) = PI3K p110α/p85α (human) (Homo sapiens (Human), UniProt P42336); test: PI3K p110α/p85α (human), non-radioactive assay (HTRF); type: biochemical; conditions: read-out: IC50 (PI3Kalpha)
Chain of PI3K p110α/p85α (human) (P42336 whole entry): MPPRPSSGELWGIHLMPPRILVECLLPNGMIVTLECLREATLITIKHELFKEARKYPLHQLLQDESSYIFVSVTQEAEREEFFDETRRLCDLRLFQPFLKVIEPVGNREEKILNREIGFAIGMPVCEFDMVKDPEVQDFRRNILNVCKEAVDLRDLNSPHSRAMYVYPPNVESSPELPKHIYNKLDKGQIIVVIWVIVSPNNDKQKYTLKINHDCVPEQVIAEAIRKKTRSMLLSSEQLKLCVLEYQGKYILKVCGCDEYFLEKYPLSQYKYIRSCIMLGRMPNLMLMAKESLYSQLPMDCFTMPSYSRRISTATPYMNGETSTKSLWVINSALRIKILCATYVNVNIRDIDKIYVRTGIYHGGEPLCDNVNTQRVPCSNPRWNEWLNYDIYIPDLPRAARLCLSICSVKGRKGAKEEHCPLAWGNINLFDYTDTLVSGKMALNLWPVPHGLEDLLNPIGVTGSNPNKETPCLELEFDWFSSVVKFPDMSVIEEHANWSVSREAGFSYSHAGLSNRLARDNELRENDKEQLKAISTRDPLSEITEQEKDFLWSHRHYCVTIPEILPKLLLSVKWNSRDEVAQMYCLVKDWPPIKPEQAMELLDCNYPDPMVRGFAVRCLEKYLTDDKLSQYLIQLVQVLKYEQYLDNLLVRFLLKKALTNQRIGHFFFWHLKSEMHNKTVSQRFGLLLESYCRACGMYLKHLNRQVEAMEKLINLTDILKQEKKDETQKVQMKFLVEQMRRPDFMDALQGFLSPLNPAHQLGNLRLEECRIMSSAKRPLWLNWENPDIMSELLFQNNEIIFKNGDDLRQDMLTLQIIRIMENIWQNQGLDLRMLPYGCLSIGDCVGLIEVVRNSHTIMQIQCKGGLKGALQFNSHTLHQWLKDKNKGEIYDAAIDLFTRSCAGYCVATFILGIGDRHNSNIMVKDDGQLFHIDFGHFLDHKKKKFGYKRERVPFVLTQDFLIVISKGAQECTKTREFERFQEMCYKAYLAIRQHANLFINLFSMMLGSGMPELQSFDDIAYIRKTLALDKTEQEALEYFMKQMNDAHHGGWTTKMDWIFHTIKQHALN
Chain of PI3K p110α/p85α (human) (P27986 whole entry partner): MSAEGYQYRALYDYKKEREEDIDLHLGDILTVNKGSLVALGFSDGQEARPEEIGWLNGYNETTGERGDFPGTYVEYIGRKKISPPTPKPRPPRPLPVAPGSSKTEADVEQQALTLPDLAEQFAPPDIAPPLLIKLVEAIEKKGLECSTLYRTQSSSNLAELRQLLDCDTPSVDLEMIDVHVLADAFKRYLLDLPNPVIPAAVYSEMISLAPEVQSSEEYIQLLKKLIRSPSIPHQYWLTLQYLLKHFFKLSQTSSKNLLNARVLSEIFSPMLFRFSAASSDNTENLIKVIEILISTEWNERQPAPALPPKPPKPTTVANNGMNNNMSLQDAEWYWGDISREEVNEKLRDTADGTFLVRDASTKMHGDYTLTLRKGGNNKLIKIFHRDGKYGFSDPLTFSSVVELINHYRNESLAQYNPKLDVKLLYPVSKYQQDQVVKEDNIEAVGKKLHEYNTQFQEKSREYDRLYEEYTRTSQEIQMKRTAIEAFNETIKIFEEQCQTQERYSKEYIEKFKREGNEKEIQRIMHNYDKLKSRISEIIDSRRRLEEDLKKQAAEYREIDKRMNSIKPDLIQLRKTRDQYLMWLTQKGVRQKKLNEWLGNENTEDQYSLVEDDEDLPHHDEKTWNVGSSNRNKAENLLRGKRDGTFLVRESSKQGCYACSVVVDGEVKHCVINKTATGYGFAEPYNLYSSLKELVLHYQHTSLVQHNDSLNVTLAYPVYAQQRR
Description: as §1, with “The” for “PI3K p110β/p85α (human) was incubated in an assay buffer comprising 10 μM phosphatidylinositol 4,5-bisphosphate and MgATP (concentration as necessary). The”, “After” for “After an”, “incubation” for “incubation time of 30 min”, “temperature for 40 minutes,” for “temperature,”

PI3K (p120γ) (human) = PI3K (p120γ) (human) (Homo sapiens (Human), UniProt P48736); test: PI3K (p120γ) (human), non-radioactive assay (HTRF); type: biochemical; conditions: read-out: IC50 (PI3Kgamma)
Description: The reaction was initiated by addition of MgATP solution. After an incubation time of 30 min at room temperature, the reaction was stopped by addition of a solution consisting of EDTA and biotinylated phosphatidylinositol 3,4,5-trisphosphate. Finally, the detection buffer, consisting of a europium-labelled anti-GST monoclonal antibody, a GST-labelled GRP1 PH domain and streptavidin allophycocyanin, was added.

PI3K p110δ/p85α (human) = PI3K p110δ/p85α (human) (Homo sapiens (Human), UniProt O00329); test: PI3K p110δ/p85α (human), non-radioactive assay (HTRF); type: biochemical; conditions: read-out: IC50 (PI3Kdelta)
Description: as §1, with “The” for “PI3K p110β/p85α (human) was incubated in an assay buffer comprising 10 μM phosphatidylinositol 4,5-bisphosphate and MgATP (concentration as necessary). The”

human recombinant ATM = human recombinant ATM (Homo sapiens (Human), UniProt Q13315); test: ATM kinase assay (IC50 ATM), TR-FRET; type: biochemical
Chain of human recombinant ATM (Q13315 whole entry): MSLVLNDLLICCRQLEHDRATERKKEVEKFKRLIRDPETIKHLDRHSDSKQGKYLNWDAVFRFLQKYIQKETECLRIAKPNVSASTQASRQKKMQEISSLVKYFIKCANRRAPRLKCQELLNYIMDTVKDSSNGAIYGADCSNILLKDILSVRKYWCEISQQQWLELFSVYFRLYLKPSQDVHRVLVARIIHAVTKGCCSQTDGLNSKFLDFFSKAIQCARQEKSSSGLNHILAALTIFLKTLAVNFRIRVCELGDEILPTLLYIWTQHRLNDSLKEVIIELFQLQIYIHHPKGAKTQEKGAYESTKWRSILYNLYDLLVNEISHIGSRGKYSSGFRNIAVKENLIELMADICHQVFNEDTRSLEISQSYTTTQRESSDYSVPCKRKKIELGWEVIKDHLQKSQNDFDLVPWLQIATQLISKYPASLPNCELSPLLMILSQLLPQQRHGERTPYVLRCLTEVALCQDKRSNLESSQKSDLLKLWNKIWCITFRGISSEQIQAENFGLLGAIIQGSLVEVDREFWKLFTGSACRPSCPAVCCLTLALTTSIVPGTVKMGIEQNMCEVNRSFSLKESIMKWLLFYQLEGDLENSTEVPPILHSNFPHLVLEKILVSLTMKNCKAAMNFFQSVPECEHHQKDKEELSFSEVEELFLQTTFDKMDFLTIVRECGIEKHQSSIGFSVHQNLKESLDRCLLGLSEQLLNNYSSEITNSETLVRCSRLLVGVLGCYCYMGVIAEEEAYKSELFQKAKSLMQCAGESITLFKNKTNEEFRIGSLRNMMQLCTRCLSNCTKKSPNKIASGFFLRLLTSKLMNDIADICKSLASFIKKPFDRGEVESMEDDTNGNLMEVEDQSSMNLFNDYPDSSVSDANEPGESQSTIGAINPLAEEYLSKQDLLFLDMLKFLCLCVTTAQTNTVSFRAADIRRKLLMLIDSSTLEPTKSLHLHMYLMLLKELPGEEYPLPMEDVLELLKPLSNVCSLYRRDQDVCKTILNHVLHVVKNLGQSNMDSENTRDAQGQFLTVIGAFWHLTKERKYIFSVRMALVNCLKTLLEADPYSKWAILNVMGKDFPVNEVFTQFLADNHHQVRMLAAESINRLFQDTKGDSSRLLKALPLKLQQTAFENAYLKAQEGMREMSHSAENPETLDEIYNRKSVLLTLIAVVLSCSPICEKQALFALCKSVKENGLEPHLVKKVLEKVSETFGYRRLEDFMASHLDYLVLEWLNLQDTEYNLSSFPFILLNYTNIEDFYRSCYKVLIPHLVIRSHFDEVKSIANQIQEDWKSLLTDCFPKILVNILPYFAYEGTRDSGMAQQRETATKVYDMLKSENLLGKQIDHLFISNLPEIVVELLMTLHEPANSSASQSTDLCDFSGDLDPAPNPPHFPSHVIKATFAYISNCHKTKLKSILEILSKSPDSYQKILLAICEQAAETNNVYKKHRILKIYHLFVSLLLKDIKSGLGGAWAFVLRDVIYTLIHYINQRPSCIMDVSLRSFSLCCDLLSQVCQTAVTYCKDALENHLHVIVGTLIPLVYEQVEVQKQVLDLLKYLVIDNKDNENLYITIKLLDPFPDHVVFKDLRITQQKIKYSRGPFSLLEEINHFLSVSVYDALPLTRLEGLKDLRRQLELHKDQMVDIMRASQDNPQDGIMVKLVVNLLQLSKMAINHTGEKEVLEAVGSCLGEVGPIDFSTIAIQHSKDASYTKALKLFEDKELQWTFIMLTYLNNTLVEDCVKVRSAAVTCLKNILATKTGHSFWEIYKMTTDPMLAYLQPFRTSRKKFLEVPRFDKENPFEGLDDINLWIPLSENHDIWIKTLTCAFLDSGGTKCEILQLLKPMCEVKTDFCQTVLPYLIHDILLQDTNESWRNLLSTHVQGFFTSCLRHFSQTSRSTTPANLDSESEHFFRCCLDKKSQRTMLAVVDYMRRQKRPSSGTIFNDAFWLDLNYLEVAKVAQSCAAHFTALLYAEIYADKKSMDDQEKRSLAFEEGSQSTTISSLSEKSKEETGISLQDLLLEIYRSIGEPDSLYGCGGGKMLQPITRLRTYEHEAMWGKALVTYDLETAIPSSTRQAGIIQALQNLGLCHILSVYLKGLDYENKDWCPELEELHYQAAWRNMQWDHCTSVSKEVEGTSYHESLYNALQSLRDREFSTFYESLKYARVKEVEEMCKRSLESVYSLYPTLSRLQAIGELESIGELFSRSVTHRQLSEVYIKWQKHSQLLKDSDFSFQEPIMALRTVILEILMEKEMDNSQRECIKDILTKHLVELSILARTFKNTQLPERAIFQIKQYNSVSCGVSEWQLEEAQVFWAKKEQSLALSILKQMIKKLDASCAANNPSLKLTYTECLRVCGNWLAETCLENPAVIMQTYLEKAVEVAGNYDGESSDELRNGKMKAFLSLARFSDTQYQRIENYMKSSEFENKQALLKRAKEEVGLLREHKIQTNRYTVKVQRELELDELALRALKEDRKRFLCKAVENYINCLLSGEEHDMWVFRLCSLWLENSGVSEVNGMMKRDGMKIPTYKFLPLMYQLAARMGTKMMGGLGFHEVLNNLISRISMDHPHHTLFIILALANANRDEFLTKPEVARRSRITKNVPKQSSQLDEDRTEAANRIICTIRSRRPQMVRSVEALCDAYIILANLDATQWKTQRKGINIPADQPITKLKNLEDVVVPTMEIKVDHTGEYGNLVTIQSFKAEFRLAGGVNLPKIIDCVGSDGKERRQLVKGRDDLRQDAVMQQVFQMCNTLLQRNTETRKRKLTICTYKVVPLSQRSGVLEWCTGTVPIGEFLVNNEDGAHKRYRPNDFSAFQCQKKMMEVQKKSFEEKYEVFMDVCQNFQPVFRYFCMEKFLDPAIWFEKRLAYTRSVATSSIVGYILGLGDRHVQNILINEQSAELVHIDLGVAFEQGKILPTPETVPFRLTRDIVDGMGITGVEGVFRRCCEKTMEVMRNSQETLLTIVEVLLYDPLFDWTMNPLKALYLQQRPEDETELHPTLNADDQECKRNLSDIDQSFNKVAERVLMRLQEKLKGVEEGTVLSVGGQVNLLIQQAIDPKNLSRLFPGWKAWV
Description: ATM Kinase Assay—Determination of ATM Inhibition (IC50 ATM):
The IC50 value was determined with the aid of a biochemical ATM kinase assay. The assay consists of two steps: the enzymatic reaction and the detection step. Firstly, ATM (ataxia telangiectasia mutated) protein and the test substance are incubated at different concentrations with addition of substrate protein p53 and ATP. ATM mediates the phosphorylation of p53 at several positions, including at amino acid S15. The amount of phosphorylated p53 is determined with the aid of specific antibodies and the TR-FRET technique. The enzymatic ATM assay is carried out as TR-FRET (HTRF™, Cisbio Bioassays) based 384-well assay. In the first step, purified human recombinant ATM (human ATM, full length, GenBank ID NM_000051, expressed in a mammal cell line) is incubated in assay buffer for 15 minutes with the ATM inhibitor in various concentrations and without test substance as negative or neutral control. The assay buffer comprises 25 mM HEPES pH 8.0, 10 mM Mg(CH3COO)2, 1 mM MnCl2, 0.1% BSA and 0.01% Brij® 35, 5 mM dithiothreitol (DTT). […] In the second step, purified human recombinant cmyc-labelled p53 (human p53, full length, GenBank ID BC003596, expressed in Sf21 insect cells) and ATP are added, and the reaction mixture is incubated at 22° C. for 30-35 minutes. The pharmacologically relevant assay volume is 5 μl. […] The enzymatic reaction is stopped by addition of EDTA. […] After incubation, usually for 2 hours (between 1.5 and 15 h), for signal development, the plates are analysed in a plate reader (EnVision, PerkinElmer) using TRF mode (and with laser excitation). […] The measurement data were processed by means of Genedata Screener software. IC50 determinations are carried out, in particular, by fitting a dose/action curve to the data points by means of nonlinear regression analysis.

[1] = system: CHK2 phosphorylation (phospho-Thr68) in HCT116 cells; test: Cellular pCHK2 assay, bleomycin-induced phosphorylation of CHK2 (phospho-Thr68), immunofluorescence high content; type: cell-based; conditions: Homo sapiens, HCT-116, 4 h, read-out: IC50 (pCHK2)
mTOR (human) = mTOR (human) (Homo sapiens (Human), UniProt P42345); test: mTOR (human) radiometric kinase assay; type: biochemical
Description: mTOR (human) was incubated with 50 mM HEPES pH 7.5, 1 mM EGTA, 0.01% Tween 20, 2 mg/ml of the substrate, 3 mM MnCl2 and [γ-^33P-ATP] (specific activity approximately 500 cpm/pmol, concentration as necessary). The reaction was initiated by addition of MgATP solution. After incubation at room temperature for 40 minutes, the reaction was stopped by addition of 3% phosphoric acid. 10 μl of the reaction solution were then transferred dropwise onto a P30 filtermat and washed three times for 5 min in 75 mM phosphoric acid and once in methanol, dried and evaluated by means of liquid scintillation counting.

**Q.** Which results are given for `CCn1cc(-c2cc3c(cc2OC)ncc2c3n(-c3c(F)cncc3OC)c(=O)n2C)cn1` [Example 13]?
**A.** IC50 (PI3K p110β/p85α (human)): > 30 µM; IC50 (PI3K p110α/p85α (human)): > 5 µM; IC50 (PI3K (p120γ) (human)): > 30 µM; IC50 (PI3K p110δ/p85α (human)): > 10 µM; IC50 (human recombinant ATM): < 0.001 µM; IC50 (human recombinant ATM; 10 μM ATP, p53 substrate): < 0.001 µM; IC50 [1]: < 0.2 µM; IC50 (mTOR (human)): > 10 µM
